From patent US20200147039A1, “COMPOUNDS USEFUL IN INHIBITING HUMAN TREFOIL FACTOR 3” (NATIONAL UNIVERSITY OF SINGAPORE, priority 2017, published 2020) come the findings set out here.

The structures appear in SMILES notation.

Common to all, as to type: cell-based
For one assay, the system named is T47D. The experiment in a line: AlamarBlue cell viability assay, T47D. As to conditions: Homo sapiens, Mammary. The source says:
(§1) (A) Inhibitory concentration 50% (IC50) values for compound 43 in the MC cell lines are tabulated, using an AlamarBlue™ cell viability assay as previously described in Pandey V et al., Breast Cancer Res. 2014; 16(5):429. (B) Measured dose-dependent manner effect of compound 43 on the viability of MC cells (left-side, TFF3-high and right, TFF3-low) using AlamarBlue™ viability assay as previously described (ibid). (C) Apoptotic cell death of mammary carcinoma cell lines measured after treatment with 10 μM compound 43 using flow cytometry analysis at 24 hour as described previously in Keerthy H K et al., PloS one. 2014; 9(9):e107118. Annexin V-FITC staining is indicated on the X-axis and PI staining on the Y-axis. […] Acquisition of Annexin V and PI data were represented as percentage (%) in each quadrant. Note: CM, conditioned media; MCF10A and MCF12A, non-transformed immortalized-mammary epithelial cell line. Points are mean of triplicate experiments; bars, ±SD. Statistical significance was assessed by using an unpaired two-tailed Student's t test (P<0.05 was considered as significant) using GraphPad Prism5. […]
(§2) In table 9 IC50 values of compound 43 compound library in several cancer cell lines are tabulated, using an AlamarBlue® cell viability assay as previously described in Pandey V et al., Breast Cancer Res. 2014; 16(5):429. Statistical analysis was assessed by using GraphPad Prism5. […]
On the technique in general: The colour change of resazurin is a common sign of viable cells or microbes.

For the next assay, the system named is BT474. The experiment in a line: AlamarBlue cell viability assay, BT474. As to conditions: Homo sapiens, BT-474, Mammary.
Excerpt: as §1, §2

Another assay deals with MDA-MB-361. The experiment in a line: AlamarBlue cell viability assay, MDA-MB-361. As to conditions: Homo sapiens, Mammary.
Excerpt: as §1, §2

A further assay has as its system BT20. The experiment in a line: AlamarBlue cell viability assay, BT20. As to conditions: Homo sapiens, BT-20, Mammary.
Excerpt: as §1, §2

Another assay has as its system MDA-MB-231. The experiment in a line: AlamarBlue cell viability assay, MDA-MB-231. As to conditions: Homo sapiens, Mammary.
Excerpt: as §1, §2

The test system of the next assay is MDA-MB-436. In words: AlamarBlue cell viability assay, MDA-MB-436. As to conditions: Homo sapiens, Mammary.
Excerpt: as §1, §2

In the next assay the test system is ECC1. The experiment in a line: AlamarBlue cell viability assay, ECC1. As to conditions: Homo sapiens, ECC-1, Endometrial. On the procedure:
(§3) The human immortalized mammary epithelial cell lines, MCF10A, and MCF12A; and immortalized hepatocellular epithelial cell line, LO2 were obtained from the American Type Culture Collection (ATCC, Rockville, Md.) and were cultured as per ATCC propagation instructions. MC cell lines, MCF7, T47D, BT474, BT20, MDA-MB-361, MDA-MB-436, MDA-MB-468, and MDA-MB-231; endometrial carcinoma cell lines, Ishikawa, ECC1, RL95-2 and AN3; hepatocellular carcinoma cell lines, Hep3B, H2P, and H2M; colon carcinoma cell lines, DLD-1, and Caco-2; and prostate carcinoma cell lines, PC3, LNCaP, and DU145 were obtained from the American Type Culture Collection (ATCC, Rockville, Md.). Pancreatic carcinoma cell lines, AsPC-1 and BxPC-3; Lung carcinoma cell lines, HCC-827, NCI-H1975, HCC-4006, PC-14, and NCI-H1299; and Thyroid carcinoma cell lines HTH83, CAL62, T238, and OGK-M were obtained from Prof. H. Phillip Koeffler's laboratory at The Cancer Science Institute of Singapore, National University of Singapore (NUS). Gastric carcinoma cell lines, AGS, MKN-28, MKN-45, and A2-528 were obtained from Prof. […]
as §2

Another assay has as its system RL95-2. The experiment in a line: AlamarBlue cell viability assay, RL95-2. As to conditions: Homo sapiens, Endometrial. As to the method:
as §3, §2

The next assay has as its system AN3. The experiment in a line: AlamarBlue cell viability assay, AN3. As to conditions: Homo sapiens, Endometrial. As to the method: as §3, §2
A further assay has as its system HCC4006. The experiment in a line: AlamarBlue cell viability assay, HCC4006. As to conditions: Homo sapiens, Lung. On the procedure: as §3, §2
The next assay has as its system H1975. In words: AlamarBlue cell viability assay, H1975. As to conditions: Homo sapiens, NCI-H1975, Lung. As to the method: as §3, §2
The next assay has as its system H1299. In words: AlamarBlue cell viability assay, H1299. As to conditions: Homo sapiens, NCI-H1299, Lung. As to the method:
as §3, §2

In a further assay the test system is PC-14. In words: AlamarBlue cell viability assay, PC-14. As to conditions: Homo sapiens, Lung. As to the method: as §3, §2
The next assay has as its system H2P. The experiment in a line: AlamarBlue cell viability assay, H2P. As to conditions: Homo sapiens, Hepatocellular. On the procedure: as §3, §2
Another assay concerns Caco-2. The experiment in a line: AlamarBlue cell viability assay, Caco-2. As to conditions: Homo sapiens, Colon. As to the method:
as §3, §2

The test system of another assay is LNCaP. In words: AlamarBlue cell viability assay, LNCaP. As to conditions: Homo sapiens, Prostate. On the procedure:
as §3, §2

A further assay relates to DU145. The experiment in a line: AlamarBlue cell viability assay, DU145. As to conditions: Homo sapiens, DU-145, Prostate. On the procedure:
as §3, §2

In another assay the test system is BxPC-3. The experiment in a line: AlamarBlue cell viability assay, BxPC-3. As to conditions: Homo sapiens, Pancreatic. As to the method:
as §3, §2

In the next assay the test system is HTH83. The experiment in a line: AlamarBlue cell viability assay, HTH83. As to conditions: Homo sapiens, Thyroid. As to the method: as §3, §2
Another assay has as its system T238. In words: AlamarBlue cell viability assay, T238. As to conditions: Homo sapiens, Thyroid. On the procedure: as §3, §2
Another assay relates to OGK-M. In words: AlamarBlue cell viability assay, OGK-M. As to conditions: Homo sapiens, Thyroid. As to the method:
as §3, §2

The subject of the next assay is AGS. In words: AlamarBlue cell viability assay, AGS. As to conditions: Homo sapiens, Gastric. As to the method: as §3, §2
For the next assay, the system named is MKN-45. The experiment in a line: AlamarBlue cell viability assay, MKN-45. As to conditions: Homo sapiens, Gastric. On the procedure:
as §3, §2

A further assay has as its system A2-528. The experiment in a line: AlamarBlue cell viability assay, A2-528. As to conditions: Homo sapiens, Gastric. On the procedure:
as §3, §2

As for `Cc1cc(-c2ccc(C3C(C#N)=C(N)Oc4c3c(=O)oc3ccccc43)cc2)cnc1F` (stereo not drawn) [Compound 43, 2-Amino-4-(4-(6-fluoro-5-methylpyridin-3-yl)phenyl)-5-oxo-4H,5H-pyrano[3,2-c]chromene-3-carbonitrile], the IC50 was found to be 5.24 µM with T47D; 2.69 µM with BT474; 1.61 µM in the assay on MDA-MB-361; 468 µM with BT20; 408 µM in the assay with MDA-MB-231; 396 µM with MDA-MB-436. Further, the IC50 in the assay with ECC1 turned out to be 4.64 µM; in the assay on RL95-2, 90.5 µM; in the assay with AN3, 289 µM; in the assay with HCC4006, 3.92 µM; with H1975, 11.8 µM; in the assay on H1299, 18.6 µM. The IC50 in the assay on PC-14 was 24.2 µM; with H2P, 11.3 µM; in the assay with Caco-2 it was 2.84 µM; in the assay on LNCaP, 226 µM; in the assay with DU145 it was 1.91 µM; in the assay on BxPC-3, 2.56 µM. Further, the IC50 in the assay on HTH83 was 0.56 µM; in the assay with T238 it was 185 µM; in the assay on OGK-M, 411 µM; in the assay on AGS, 3.08 µM; with MKN-45 it was 6.81 µM; with A2-528 it was 34.1 µM.

By IC50 is commonly meant the concentration that inhibits the measured activity by half. High values mean weaker potency, low ones greater potency.
